{
  "source": "paper PMC9719519",
  "about": "“Non-classical ferroptosis inhibition by a small molecule targeting PHB2” (Nature Communications, 2022)",
  "experiment_in_all_cases": "biochemical",
  "design_in_all_cases": "Eurofins recombinant human kinase profiling, remaining kinase activity as % of control, 10 uM ATP",
  "settings_in_all_cases": "ATP 10 uM; read-out: %Ctrl@10 μM",
  "key": {"ALK6(h)": {"molecular_target": "T1, ALK6(h) (Homo sapiens, UniProt O00238)", "T1 construct": "gene BMPR1B", "in_short": "(§1)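 Recombinant human kinases, 401 in total, screened using an outsourced kinase profiling assay.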"}, "Abl(Y253F)(h)": {"molecular_target": "T2, Abl(Y253F)(h) (Homo sapiens, UniProt P00519, Y253F)", "T2 construct": "gene ABL1", "in_short": "as §1"}, "Abl(h)": {"molecular_target": "T3, Abl(h) (Homo sapiens, UniProt P00519)", "T3 construct": "gene ABL1", "in_short": "as §1"}, "Bmx(h)": {"molecular_target": "Bmx(h) (Homo sapiens, UniProt P51813)", "in_short": "as §1"}, "DCAMKL3(h)": {"molecular_target": "T4, DCAMKL3(h) (Homo sapiens, UniProt Q9C098)", "T4 construct": "gene DCLK3", "in_short": "as §1"}, "EGFR(L858R)(h)": {"molecular_target": "EGFR(L858R)(h) (Homo sapiens, UniProt P00533, L858R)", "in_short": "as §1"}, "GRK1(h)": {"molecular_target": "GRK1(h) (Homo sapiens, UniProt Q15835)", "in_short": "as §1"}, "JAK3(h)": {"molecular_target": "JAK3(h) (Homo sapiens, UniProt P52333)", "sequence (P52333 whole entry)": "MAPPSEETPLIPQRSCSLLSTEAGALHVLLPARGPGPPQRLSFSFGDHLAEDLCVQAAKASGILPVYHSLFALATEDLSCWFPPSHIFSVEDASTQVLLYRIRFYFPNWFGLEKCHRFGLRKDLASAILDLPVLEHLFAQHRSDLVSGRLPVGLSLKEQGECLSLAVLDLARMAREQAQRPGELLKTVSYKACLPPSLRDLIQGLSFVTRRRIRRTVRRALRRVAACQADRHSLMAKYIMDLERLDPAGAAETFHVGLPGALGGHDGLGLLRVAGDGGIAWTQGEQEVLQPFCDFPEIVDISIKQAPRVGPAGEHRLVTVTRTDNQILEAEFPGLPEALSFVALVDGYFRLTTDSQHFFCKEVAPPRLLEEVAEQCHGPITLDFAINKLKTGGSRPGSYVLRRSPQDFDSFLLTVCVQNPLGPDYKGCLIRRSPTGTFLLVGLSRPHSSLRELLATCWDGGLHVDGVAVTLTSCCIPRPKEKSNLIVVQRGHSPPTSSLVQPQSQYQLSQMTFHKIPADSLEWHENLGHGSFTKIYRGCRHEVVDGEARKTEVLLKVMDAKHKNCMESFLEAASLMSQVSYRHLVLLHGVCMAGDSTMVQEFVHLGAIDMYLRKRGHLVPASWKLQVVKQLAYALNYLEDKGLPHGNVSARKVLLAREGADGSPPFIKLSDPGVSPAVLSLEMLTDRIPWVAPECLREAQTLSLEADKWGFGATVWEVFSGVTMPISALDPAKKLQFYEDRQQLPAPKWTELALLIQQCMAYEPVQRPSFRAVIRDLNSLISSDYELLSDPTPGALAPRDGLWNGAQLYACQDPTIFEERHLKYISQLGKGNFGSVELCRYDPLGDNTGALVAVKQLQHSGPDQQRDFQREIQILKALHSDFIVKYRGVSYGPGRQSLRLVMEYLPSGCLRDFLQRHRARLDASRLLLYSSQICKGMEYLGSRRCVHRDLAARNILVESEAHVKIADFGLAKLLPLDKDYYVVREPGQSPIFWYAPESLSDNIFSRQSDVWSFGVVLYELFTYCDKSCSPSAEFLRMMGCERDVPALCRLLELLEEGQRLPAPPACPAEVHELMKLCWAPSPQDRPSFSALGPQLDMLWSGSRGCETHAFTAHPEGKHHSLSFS", "in_short": "as §1"}, "MYO3B(h)": {"molecular_target": "MYO3B(h) (Homo sapiens, UniProt Q8WXR4)", "sequence (Q8WXR4 whole entry)": "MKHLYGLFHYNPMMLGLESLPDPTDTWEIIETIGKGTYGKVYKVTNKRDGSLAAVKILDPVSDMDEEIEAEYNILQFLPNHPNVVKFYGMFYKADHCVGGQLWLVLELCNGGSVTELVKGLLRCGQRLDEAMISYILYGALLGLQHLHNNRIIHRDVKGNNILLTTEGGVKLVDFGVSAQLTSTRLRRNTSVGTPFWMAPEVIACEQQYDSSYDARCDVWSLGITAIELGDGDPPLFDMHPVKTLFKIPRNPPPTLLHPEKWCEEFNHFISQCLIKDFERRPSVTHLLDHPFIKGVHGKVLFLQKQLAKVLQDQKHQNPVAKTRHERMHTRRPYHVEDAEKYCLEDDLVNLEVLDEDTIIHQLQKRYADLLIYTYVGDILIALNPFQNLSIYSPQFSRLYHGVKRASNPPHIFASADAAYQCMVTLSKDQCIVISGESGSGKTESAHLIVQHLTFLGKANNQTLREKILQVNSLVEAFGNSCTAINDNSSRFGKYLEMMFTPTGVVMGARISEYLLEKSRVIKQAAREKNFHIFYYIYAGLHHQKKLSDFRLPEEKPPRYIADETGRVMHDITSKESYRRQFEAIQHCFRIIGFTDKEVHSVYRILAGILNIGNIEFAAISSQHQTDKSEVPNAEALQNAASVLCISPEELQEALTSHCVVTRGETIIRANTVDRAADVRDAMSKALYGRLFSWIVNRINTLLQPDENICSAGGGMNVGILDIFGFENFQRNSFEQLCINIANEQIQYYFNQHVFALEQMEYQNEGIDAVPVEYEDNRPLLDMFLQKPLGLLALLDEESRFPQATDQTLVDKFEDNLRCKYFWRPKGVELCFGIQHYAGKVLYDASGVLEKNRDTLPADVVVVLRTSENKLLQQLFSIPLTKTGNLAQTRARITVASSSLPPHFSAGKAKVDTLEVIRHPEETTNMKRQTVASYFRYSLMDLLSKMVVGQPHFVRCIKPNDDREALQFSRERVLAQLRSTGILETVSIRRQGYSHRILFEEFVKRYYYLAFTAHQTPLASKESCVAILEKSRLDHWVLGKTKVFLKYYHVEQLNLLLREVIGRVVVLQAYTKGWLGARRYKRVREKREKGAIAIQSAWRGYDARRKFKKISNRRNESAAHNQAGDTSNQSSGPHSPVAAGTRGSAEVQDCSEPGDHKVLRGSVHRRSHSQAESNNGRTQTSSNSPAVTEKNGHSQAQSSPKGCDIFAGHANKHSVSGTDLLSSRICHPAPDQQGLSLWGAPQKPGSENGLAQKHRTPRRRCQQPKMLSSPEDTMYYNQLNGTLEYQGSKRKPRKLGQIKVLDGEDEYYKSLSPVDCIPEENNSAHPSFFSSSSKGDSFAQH", "in_short": "as §1"}, "NEK6(h)": {"molecular_target": "NEK6(h) (Homo sapiens, UniProt Q9HC98)", "sequence (Q9HC98 whole entry)": "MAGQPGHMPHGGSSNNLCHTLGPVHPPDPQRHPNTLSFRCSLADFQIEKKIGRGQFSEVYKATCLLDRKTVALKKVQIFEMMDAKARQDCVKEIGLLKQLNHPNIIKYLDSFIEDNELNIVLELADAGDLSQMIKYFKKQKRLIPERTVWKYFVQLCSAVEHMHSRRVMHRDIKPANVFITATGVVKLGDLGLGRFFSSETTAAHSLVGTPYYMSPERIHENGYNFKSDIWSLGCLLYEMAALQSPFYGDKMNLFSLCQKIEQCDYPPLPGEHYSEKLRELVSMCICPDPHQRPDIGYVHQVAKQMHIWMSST", "in_short": "as §1"}, "PAK2(h)": {"molecular_target": "PAK2(h) (Homo sapiens, UniProt Q13177)", "in_short": "as §1"}, "PAK5(h)": {"molecular_target": "PAK5(h) (Homo sapiens, UniProt Q9P286)", "in_short": "as §1"}, "PKA(h)": {"molecular_target": "T5, PKA(h) (Homo sapiens, UniProt P17612)", "T5 construct": "gene PRKACA", "in_short": "as §1"}, "PKD3(h)": {"molecular_target": "T6, PKD3(h) (Homo sapiens, UniProt O94806)", "T6 construct": "gene PRKD3", "in_short": "as §1"}, "Plk3(h)": {"molecular_target": "Plk3(h) (Homo sapiens, UniProt Q9H4B4)", "sequence (Q9H4B4 whole entry)": "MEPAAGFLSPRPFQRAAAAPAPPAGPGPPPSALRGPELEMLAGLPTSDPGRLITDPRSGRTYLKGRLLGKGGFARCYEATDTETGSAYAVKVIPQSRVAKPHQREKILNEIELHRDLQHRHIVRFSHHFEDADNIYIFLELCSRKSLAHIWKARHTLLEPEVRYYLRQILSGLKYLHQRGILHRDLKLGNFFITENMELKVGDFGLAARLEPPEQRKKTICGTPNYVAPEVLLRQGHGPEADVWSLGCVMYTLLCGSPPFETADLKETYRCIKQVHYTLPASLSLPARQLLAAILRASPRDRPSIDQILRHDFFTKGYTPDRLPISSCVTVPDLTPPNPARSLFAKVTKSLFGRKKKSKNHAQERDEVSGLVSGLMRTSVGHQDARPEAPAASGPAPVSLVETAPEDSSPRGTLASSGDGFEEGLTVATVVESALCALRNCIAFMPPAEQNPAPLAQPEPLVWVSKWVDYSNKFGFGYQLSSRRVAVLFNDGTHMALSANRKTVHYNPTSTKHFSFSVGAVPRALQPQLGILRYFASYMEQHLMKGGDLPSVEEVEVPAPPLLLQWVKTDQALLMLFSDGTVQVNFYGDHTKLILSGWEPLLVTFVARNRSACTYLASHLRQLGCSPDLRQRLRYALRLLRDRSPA", "in_short": "as §1"}, "RIPK2(h)": {"molecular_target": "RIPK2(h) (Homo sapiens, UniProt O43353)", "in_short": "as §1"}, "ROCK-II(h)": {"molecular_target": "T7, ROCK-II(h) (Homo sapiens, UniProt O75116)", "T7 construct": "gene ROCK2", "T7 sequence (O75116 whole entry)": "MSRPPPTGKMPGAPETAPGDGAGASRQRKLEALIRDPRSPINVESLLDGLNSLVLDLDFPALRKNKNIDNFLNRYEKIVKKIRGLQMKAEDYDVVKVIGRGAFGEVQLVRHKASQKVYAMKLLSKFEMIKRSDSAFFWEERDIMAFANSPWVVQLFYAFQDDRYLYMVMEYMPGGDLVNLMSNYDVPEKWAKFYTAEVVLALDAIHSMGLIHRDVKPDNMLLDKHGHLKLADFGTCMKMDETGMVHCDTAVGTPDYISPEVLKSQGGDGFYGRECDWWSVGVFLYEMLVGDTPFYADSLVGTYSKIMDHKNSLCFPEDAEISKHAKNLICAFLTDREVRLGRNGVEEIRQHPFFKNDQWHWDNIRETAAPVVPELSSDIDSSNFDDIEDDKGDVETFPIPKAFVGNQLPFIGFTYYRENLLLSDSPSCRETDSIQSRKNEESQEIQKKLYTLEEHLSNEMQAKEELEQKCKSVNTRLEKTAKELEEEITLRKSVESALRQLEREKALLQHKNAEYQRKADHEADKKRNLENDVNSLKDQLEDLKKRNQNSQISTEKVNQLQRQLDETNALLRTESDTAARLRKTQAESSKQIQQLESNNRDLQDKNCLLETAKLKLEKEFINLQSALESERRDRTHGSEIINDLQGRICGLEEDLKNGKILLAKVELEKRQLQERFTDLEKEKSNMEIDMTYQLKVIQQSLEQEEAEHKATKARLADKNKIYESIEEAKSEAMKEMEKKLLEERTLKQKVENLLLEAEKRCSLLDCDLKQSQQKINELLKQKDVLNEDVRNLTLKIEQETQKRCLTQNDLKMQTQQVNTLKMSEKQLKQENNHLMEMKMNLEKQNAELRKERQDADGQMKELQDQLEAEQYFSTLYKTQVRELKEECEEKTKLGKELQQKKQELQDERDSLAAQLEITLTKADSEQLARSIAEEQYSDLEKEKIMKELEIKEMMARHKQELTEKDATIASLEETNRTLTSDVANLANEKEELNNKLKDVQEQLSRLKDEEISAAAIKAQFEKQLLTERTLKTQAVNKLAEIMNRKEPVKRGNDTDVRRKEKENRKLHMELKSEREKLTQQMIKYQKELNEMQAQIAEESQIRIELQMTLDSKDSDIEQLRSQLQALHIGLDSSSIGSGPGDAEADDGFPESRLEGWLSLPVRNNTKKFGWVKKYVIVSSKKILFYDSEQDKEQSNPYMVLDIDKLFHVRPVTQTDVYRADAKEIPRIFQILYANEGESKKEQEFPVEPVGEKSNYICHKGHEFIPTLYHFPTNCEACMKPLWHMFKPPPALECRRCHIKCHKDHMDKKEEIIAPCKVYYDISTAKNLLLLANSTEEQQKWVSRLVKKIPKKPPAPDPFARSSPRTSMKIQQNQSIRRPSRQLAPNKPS", "in_short": "as §1"}, "SIK2(h)": {"molecular_target": "SIK2(h) (Homo sapiens, UniProt Q9H0K1)", "in_short": "as §1"}, "SRPK1(h)": {"molecular_target": "SRPK1(h) (Homo sapiens, UniProt Q96SB4)", "in_short": "as §1"}, "TNIK(h)": {"molecular_target": "TNIK(h) (Homo sapiens, UniProt Q9UKE5)", "in_short": "as §1"}, "WNK1(h)": {"molecular_target": "WNK1(h) (Homo sapiens, UniProt Q9H4A3)", "in_short": "as §1"}},
  "data": [
    {"smiles": "C1=C(c2nc(-c3cnn(C4CCNCC4)c3)cn3cc(-c4ccccc4)nc23)CCOC1", "note": "[YL-939]", "values": [
      {"measurement": "remaining activity at 10 µM", "setting": "ALK6(h)", "result": 105, "unit": "%"},
      {"measurement": "remaining activity at 10 µM", "setting": "Abl(Y253F)(h)", "result": 123, "unit": "%"},
      {"measurement": "remaining activity at 10 µM", "setting": "Abl(h)", "result": 102, "unit": "%"},
      {"measurement": "remaining activity at 10 µM", "setting": "Bmx(h)", "result": 87, "unit": "%"},
      {"measurement": "remaining activity at 10 µM", "setting": "DCAMKL3(h)", "result": 66, "unit": "%"},
      {"measurement": "remaining activity at 10 µM", "setting": "EGFR(L858R)(h)", "result": 86, "unit": "%"},
      {"measurement": "remaining activity at 10 µM", "setting": "GRK1(h)", "result": 109, "unit": "%"},
      {"measurement": "remaining activity at 10 µM", "setting": "JAK3(h)", "result": 91, "unit": "%"},
      {"measurement": "remaining activity at 10 µM", "setting": "MYO3B(h)", "result": 89, "unit": "%"},
      {"measurement": "remaining activity at 10 µM", "setting": "NEK6(h)", "result": 97, "unit": "%"},
      {"measurement": "remaining activity at 10 µM", "setting": "PAK2(h)", "result": 90, "unit": "%"},
      {"measurement": "remaining activity at 10 µM", "setting": "PAK5(h)", "result": 95, "unit": "%"},
      {"measurement": "remaining activity at 10 µM", "setting": "PKA(h)", "result": 98, "unit": "%"},
      {"measurement": "remaining activity at 10 µM", "setting": "PKD3(h)", "result": 87, "unit": "%"},
      {"measurement": "remaining activity at 10 µM", "setting": "Plk3(h)", "result": 103, "unit": "%"},
      {"measurement": "remaining activity at 10 µM", "setting": "RIPK2(h)", "result": 71, "unit": "%"},
      {"measurement": "remaining activity at 10 µM", "setting": "ROCK-II(h)", "result": 89, "unit": "%"},
      {"measurement": "remaining activity at 10 µM", "setting": "SIK2(h)", "result": 94, "unit": "%"},
      {"measurement": "remaining activity at 10 µM", "setting": "SRPK1(h)", "result": 107, "unit": "%"},
      {"measurement": "remaining activity at 10 µM", "setting": "TNIK(h)", "result": 56, "unit": "%"},
      {"measurement": "remaining activity at 10 µM", "setting": "WNK1(h)", "result": 85, "unit": "%"}
    ]}
  ]
}
